#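 Five concentrations, 48 hours, 96-well plates. Here, GI50 denotes the concentration required for 50% inhibition of growth.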 Activity calls are given as the source filed them. Cut-off read from the data, not from the text of the source: active = GI50 up to about 1.1 µM and inactive = higher.
# Legend:
# Assay in all cases: inhibition of tumour cell growth, NCI panel, 48 h
# SNB-75 = test system: SNB-75
# M14 = test system: M14
# SNB-19 = test system: SNB-19
# TK-10 = test system: TK-10
# NCI-H226 = test system: NCI-H226
# OVCAR-3 = test system: OVCAR-3
# SF-295 = test system: SF-295
# BT-549 = test system: BT-549
# SK-MEL-28 = test system: SK-MEL-28
# SK-MEL-5 = test system: SK-MEL-5
# MCF7 = test system: MCF7
# UACC-257 = test system: UACC-257
# OVCAR-8 = test system: OVCAR-8
# NCI-H460 = test system: NCI-H460
# NCI/ADR-RES = test system: NCI/ADR-RES
# PC-3 = test system: PC-3
# MDA-N = test system: MDA-N
# LOX IMVI = test system: LOX IMVI
# HCT-116 = test system: HCT-116
# Hs-578T = test system: Hs-578T
# HOP-62 = test system: HOP-62
# A498 = test system: A498
# CAKI-1 = test system: CAKI-1
# MDA-MB-231 = test system: MDA-MB-231
# EKVX = test system: EKVX
# T47D = test system: T47D
# UACC-62 = test system: UACC-62
# OVCAR-5 = test system: OVCAR-5
# HL-60 = test system: HL-60
# NCI-H23 = test system: NCI-H23
# 786-0 = test system: 786-0
# HCT-15 = test system: HCT-15
# HT-29 = test system: HT-29
# SK-MEL-2 = test system: SK-MEL-2
# UO-31 = test system: UO-31
# U-251 = test system: U-251
# MDA-MB-435 = test system: MDA-MB-435
# COLO 205 = test system: COLO 205
# K562 = test system: K562
# RXF 393 = test system: RXF 393
# IGROV-1 = test system: IGROV-1
# NCI-H522 = test system: NCI-H522
# SF-268 = test system: SF-268
# ACHN = test system: ACHN
# RPMI-8226 = test system: RPMI-8226
# A549 = test system: A549
# KM12 = test system: KM12
# HCC 2998 = test system: HCC 2998
# HOP-92 = test system: HOP-92
# SK-OV-3 = test system: SK-OV-3
# SW-620 = test system: SW-620
# CCRF-CEM = test system: CCRF-CEM
# SF-539 = test system: SF-539
# MOLT-4 = test system: MOLT-4
# DU-145 = test system: DU-145
# SN12C = test system: SN12C
# Malme-3M = test system: Malme-3M
# SR = test system: SR
# OVCAR-4 = test system: OVCAR-4
compound,measurement,setting,value
COC(=O)[C@@H]1[C@H]2CC[C@]3(C)[C@@H](OC(C)=O)CC[C@H]3[C@@H]2CC[C@H]1C(C)=O,GI50,SNB-75,> 100 µM (inactive)
same,GI50,M14,> 100 µM (inactive)
same,GI50,SNB-19,> 100 µM (inactive)
same,GI50,TK-10,> 100 µM (inactive)
same,GI50,NCI-H226,> 100 µM (inactive)
same,GI50,OVCAR-3,> 100 µM (inactive)
same,GI50,SF-295,> 100 µM (inactive)
same,GI50,BT-549,> 100 µM (inactive)
same,GI50,SK-MEL-28,> 100 µM (inactive)
same,GI50,SK-MEL-5,> 100 µM (inactive)
same,GI50,MCF7,> 100 µM (inactive)
same,GI50,UACC-257,> 100 µM (inactive)
same,GI50,OVCAR-8,> 100 µM (inactive)
same,GI50,NCI-H460,> 100 µM (inactive)
same,GI50,NCI/ADR-RES,> 100 µM (inactive)
same,GI50,PC-3,> 100 µM (inactive)
same,GI50,MDA-N,> 100 µM (inactive)
same,GI50,LOX IMVI,> 100 µM (inactive)
same,GI50,HCT-116,> 100 µM (inactive)
same,GI50,Hs-578T,> 100 µM (inactive)
same,GI50,HOP-62,> 100 µM (inactive)
same,GI50,A498,> 100 µM (inactive)
same,GI50,CAKI-1,> 100 µM (inactive)
same,GI50,MDA-MB-231,> 100 µM (inactive)
same,GI50,EKVX,> 100 µM (inactive)
same,GI50,T47D,> 100 µM (inactive)
same,GI50,UACC-62,> 100 µM (inactive)
same,GI50,OVCAR-5,> 100 µM (inactive)
same,GI50,HL-60,> 100 µM (inactive)
same,GI50,NCI-H23,> 100 µM (inactive)
same,GI50,786-0,> 100 µM (inactive)
same,GI50,HCT-15,> 100 µM
same,GI50,HT-29,> 100 µM (inactive)
same,GI50,SK-MEL-2,> 100 µM (inactive)
same,GI50,UO-31,> 100 µM (inactive)
same,GI50,U-251,> 100 µM (inactive)
same,GI50,MDA-MB-435,> 100 µM (inactive)
same,GI50,COLO 205,> 100 µM (inactive)
same,GI50,K562,> 100 µM (inactive)
same,GI50,RXF 393,> 100 µM (inactive)
same,GI50,IGROV-1,> 100 µM (inactive)
same,GI50,NCI-H522,> 100 µM (inactive)
same,GI50,SF-268,> 100 µM (inactive)
same,GI50,ACHN,> 100 µM (inactive)
same,GI50,RPMI-8226,> 100 µM (inactive)
same,GI50,A549,> 100 µM (inactive)
same,GI50,KM12,> 100 µM (inactive)
same,GI50,HCC 2998,> 100 µM (inactive)
same,GI50,HOP-92,> 100 µM (inactive)
same,GI50,SK-OV-3,> 100 µM (inactive)
same,GI50,SW-620,> 100 µM (inactive)
same,GI50,CCRF-CEM,> 100 µM (inactive)
same,GI50,SF-539,> 100 µM (inactive)
same,GI50,MOLT-4,> 100 µM (inactive)
same,GI50,DU-145,> 100 µM (inactive)
same,GI50,SN12C,> 100 µM (inactive)
same,GI50,Malme-3M,> 100 µM (inactive)
CCCCCC(=O)n1[nH]c(=O)n(-c2ccc(OC)cc2)c1=O,GI50,SNB-75,> 100 µM (inactive)
same,GI50,M14,> 100 µM (inactive)
same,GI50,SNB-19,> 100 µM (inactive)
same,GI50,TK-10,> 100 µM (inactive)
same,GI50,NCI-H226,> 100 µM (inactive)
same,GI50,OVCAR-3,> 100 µM (inactive)
same,GI50,SF-295,> 100 µM (inactive)
same,GI50,BT-549,> 100 µM (inactive)
same,GI50,SK-MEL-28,> 100 µM (inactive)
same,GI50,SK-MEL-5,> 100 µM (inactive)
same,GI50,MCF7,> 100 µM (inactive)
same,GI50,UACC-257,> 100 µM (inactive)
same,GI50,OVCAR-8,> 100 µM (inactive)
same,GI50,NCI-H460,> 100 µM (inactive)
same,GI50,NCI/ADR-RES,> 100 µM (inactive)
same,GI50,PC-3,> 100 µM (inactive)
same,GI50,MDA-N,> 100 µM (inactive)
same,GI50,LOX IMVI,> 100 µM (inactive)
same,GI50,HCT-116,> 100 µM (inactive)
same,GI50,Hs-578T,> 100 µM (inactive)
same,GI50,HOP-62,> 100 µM (inactive)
same,GI50,SR,> 100 µM (inactive)
same,GI50,CAKI-1,> 100 µM (inactive)
same,GI50,MDA-MB-231,> 100 µM (inactive)
same,GI50,EKVX,> 100 µM (inactive)
same,GI50,T47D,> 100 µM (inactive)
same,GI50,UACC-62,> 100 µM (inactive)
same,GI50,OVCAR-5,> 100 µM (inactive)
same,GI50,HL-60,> 100 µM (inactive)
same,GI50,NCI-H23,> 100 µM (inactive)
same,GI50,786-0,> 100 µM (inactive)
same,GI50,HCT-15,> 100 µM
same,GI50,HT-29,> 100 µM (inactive)
same,GI50,SK-MEL-2,> 100 µM (inactive)
same,GI50,UO-31,> 100 µM (inactive)
same,GI50,U-251,> 100 µM (inactive)
same,GI50,MDA-MB-435,> 100 µM (inactive)
same,GI50,COLO 205,> 100 µM (inactive)
same,GI50,K562,> 100 µM (inactive)
same,GI50,RXF 393,> 100 µM (inactive)
same,GI50,IGROV-1,> 100 µM (inactive)
same,GI50,NCI-H522,57.5 µM (inactive)
same,GI50,SF-268,> 100 µM (inactive)
same,GI50,ACHN,> 100 µM (inactive)
same,GI50,RPMI-8226,> 100 µM (inactive)
same,GI50,A549,> 100 µM (inactive)
same,GI50,KM12,> 100 µM (inactive)
same,GI50,HCC 2998,> 100 µM (inactive)
same,GI50,SK-OV-3,> 100 µM (inactive)
same,GI50,SW-620,> 100 µM (inactive)
same,GI50,CCRF-CEM,> 100 µM (inactive)
same,GI50,MOLT-4,> 100 µM (inactive)
same,GI50,DU-145,> 100 µM (inactive)
same,GI50,SN12C,> 100 µM (inactive)
same,GI50,OVCAR-4,> 100 µM (inactive)
same,GI50,Malme-3M,63.1 µM (inactive)
COc1ccc(OC)c2cc(Cc3ccc(N(C)C)cc3)c(=O)c(Cc3ccc(N(C)C)cc3)cc12,GI50,SNB-75,40.4 µM (inactive)
same,GI50,M14,> 100 µM (inactive)
same,GI50,SNB-19,75.5 µM (inactive)
same,GI50,NCI-H226,47.3 µM (inactive)
same,GI50,OVCAR-3,> 100 µM (inactive)
same,GI50,SF-295,> 100 µM (inactive)
same,GI50,BT-549,> 100 µM (inactive)
same,GI50,SK-MEL-28,> 100 µM (inactive)
same,GI50,SK-MEL-5,63.7 µM (inactive)
same,GI50,MCF7,> 100 µM (inactive)
same,GI50,UACC-257,> 100 µM (inactive)
same,GI50,OVCAR-8,32.9 µM (inactive)
same,GI50,NCI-H460,55.6 µM (inactive)
same,GI50,NCI/ADR-RES,30.2 µM (inactive)
same,GI50,PC-3,62.1 µM (inactive)
same,GI50,MDA-N,> 100 µM (inactive)
same,GI50,HCT-116,> 100 µM (inactive)
same,GI50,Hs-578T,25.5 µM (inactive)
same,GI50,HOP-62,58.6 µM (inactive)
same,GI50,A498,26.4 µM (inactive)
same,GI50,CAKI-1,61 µM (inactive)
same,GI50,MDA-MB-231,74.5 µM (inactive)
same,GI50,EKVX,> 100 µM (inactive)
same,GI50,T47D,76.9 µM (inactive)
same,GI50,UACC-62,59.4 µM (inactive)
same,GI50,OVCAR-5,> 100 µM (inactive)
same,GI50,NCI-H23,> 100 µM (inactive)
same,GI50,786-0,90.8 µM (inactive)
same,GI50,HCT-15,> 100 µM
same,GI50,HT-29,> 100 µM (inactive)
same,GI50,UO-31,> 100 µM (inactive)
same,GI50,U-251,53.2 µM (inactive)
same,GI50,MDA-MB-435,> 100 µM (inactive)
same,GI50,COLO 205,> 100 µM (inactive)
same,GI50,K562,34.4 µM (inactive)
same,GI50,RXF 393,> 100 µM (inactive)
same,GI50,IGROV-1,45.7 µM (inactive)
same,GI50,NCI-H522,20.7 µM (inactive)
same,GI50,SF-268,46.7 µM (inactive)
same,GI50,ACHN,> 100 µM (inactive)
same,GI50,RPMI-8226,22.4 µM (inactive)
same,GI50,A549,57 µM (inactive)
same,GI50,KM12,> 100 µM (inactive)
same,GI50,HCC 2998,> 100 µM (inactive)
same,GI50,HOP-92,> 100 µM (inactive)
same,GI50,SK-OV-3,> 100 µM (inactive)
same,GI50,SW-620,> 100 µM (inactive)
same,GI50,CCRF-CEM,> 100 µM (inactive)
same,GI50,SF-539,86.1 µM (inactive)
same,GI50,MOLT-4,> 100 µM (inactive)
same,GI50,DU-145,> 100 µM (inactive)
same,GI50,SN12C,> 100 µM (inactive)
same,GI50,OVCAR-4,> 100 µM (inactive)
same,GI50,Malme-3M,> 100 µM (inactive)
